The results in this text go back to patent US20140121216A1, “INDOLEAMINE DERIVATIVES FOR THE TREATMENT OF CENTRAL NERVOUS SYSTEM DISEASES” (Adamed Sp. z o.o., priority 2011, published 2014).

Data set [1] deals with α1 adrenergic receptors (rat cerebral cortex). In words: Binding assay, α1 adrenergic receptor ([3H]prazosin). The following applies: for α1 [%] affinity test result: compound 1×10^−6 M; for Ki: read-out: Inhibition constant Ki α1. As for the experimental part: (§1) The specific ligand binding to the receptors is defined as the difference between the total binding and the non-specific binding determined in the presence of an excess of unlabelled ligand.
(§2) The inhibition constants (Ki) were calculated using the Cheng Prusoff equation (Ki=IC50/(1+(L/KD)), where L=concentration of radioligand in the assay, and KD=affinity of the radioligand for the receptor). A Scatchard plot is used to determine the Kd. The IC50 values (concentration causing a half-maximal inhibition of control specific binding) and Hill coefficients (nH) were determined by non-linear regression analysis of the competition curves generated with mean replicate values using Hill equation curve fitting (Y=D+[(A−D)/(1+(C/C50)^nH)], where Y=specific binding, D=minimum specific binding, A=maximum specific binding, C=compound concentration, C50=IC50, and nH=slope factor). This analysis was performed using a software developed at Cerep (Hill software) and validated by comparison with data generated by the commercial software SigmaPlot® 4.0 for Windows® (©1997 by SPSS Inc.).
Experimental conditions for tests are given in Table 7, and results of tests for representative compounds are given in Tables 8a and 8b (α1 receptors) and in Tables 9a and 9b (α2C receptors).

Data set [2] concerns σ receptors (rat cerebral cortex). In words: Binding assay, σ receptors ([3H]DTG). The following applies: compound 1×10^−6 M. The method, then:
(§3) Moreover, ability of the compounds of the invention to block potassium channel hERG was tested.
as §1, §2
Experimental conditions for tests are given in Table 14, and results of tests for representative compounds are given in Table 15a and 15b.

Data set [3] deals with T1, hERG potassium channels (KCNH2 gene, expressed in CHO cells) (Homo sapiens, UniProt Q12809).
T1 construct: expressed in transfected cells; host or cells: CHO cells
T1 sequence (Q12809 whole entry): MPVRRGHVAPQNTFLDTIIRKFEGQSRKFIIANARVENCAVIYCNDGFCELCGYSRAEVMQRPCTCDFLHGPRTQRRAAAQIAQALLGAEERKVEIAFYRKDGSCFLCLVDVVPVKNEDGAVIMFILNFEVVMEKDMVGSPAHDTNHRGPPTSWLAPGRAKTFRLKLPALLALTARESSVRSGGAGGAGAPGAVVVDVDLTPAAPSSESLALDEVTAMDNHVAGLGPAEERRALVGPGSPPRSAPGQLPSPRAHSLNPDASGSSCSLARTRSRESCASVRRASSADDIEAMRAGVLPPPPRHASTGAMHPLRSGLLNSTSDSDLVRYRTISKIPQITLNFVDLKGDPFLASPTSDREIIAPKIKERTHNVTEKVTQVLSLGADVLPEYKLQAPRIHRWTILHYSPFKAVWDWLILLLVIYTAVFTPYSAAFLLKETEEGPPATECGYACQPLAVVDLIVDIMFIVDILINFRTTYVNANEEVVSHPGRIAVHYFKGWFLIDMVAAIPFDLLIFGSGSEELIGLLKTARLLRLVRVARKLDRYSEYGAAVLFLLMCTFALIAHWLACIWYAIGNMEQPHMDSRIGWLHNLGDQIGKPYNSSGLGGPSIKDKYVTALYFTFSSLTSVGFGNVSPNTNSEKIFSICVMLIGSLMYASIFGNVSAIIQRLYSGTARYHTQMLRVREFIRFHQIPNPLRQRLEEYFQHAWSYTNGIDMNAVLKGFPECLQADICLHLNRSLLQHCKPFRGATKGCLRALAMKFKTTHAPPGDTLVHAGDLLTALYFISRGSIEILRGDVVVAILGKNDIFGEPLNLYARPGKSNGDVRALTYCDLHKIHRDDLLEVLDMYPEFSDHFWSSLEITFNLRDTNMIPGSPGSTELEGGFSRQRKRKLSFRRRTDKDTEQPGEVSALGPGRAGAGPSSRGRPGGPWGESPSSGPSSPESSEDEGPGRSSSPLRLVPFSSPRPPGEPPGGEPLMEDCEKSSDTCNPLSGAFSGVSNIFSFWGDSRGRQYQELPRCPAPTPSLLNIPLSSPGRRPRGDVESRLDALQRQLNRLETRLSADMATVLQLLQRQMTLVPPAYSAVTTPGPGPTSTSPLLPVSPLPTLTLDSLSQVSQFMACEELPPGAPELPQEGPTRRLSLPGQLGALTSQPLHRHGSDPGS
In words: Ability to block hERG potassium channel, electrophysiology (IonWorks Quattro). The settings on record: for hERG [%] (% block of hERG current): compound 1×10^−5 M; for Ki: read-out: Inhibition constants Ki for hERG potassium channels (column head H1 [nM]). The data set is classed as cell-based. The method, then:
Ability to block hERG potassium channels was determined using the electrophysiological method and cloned hERG potassium channels (KCNH2 gene, expressed in CHO cells) as biological material. The effects were evaluated using IonWorks™ Quattro system (MDS-AT).
hERG current was elicited using a pulse pattern with fixed amplitudes (conditioning prepulse: −80 mV for 25 ms; test pulse: +40 mV for 80 ms) from a holding potential of 0 mV. hERG current was measured as a difference between the peak current at 1 ms after the test step to +40 mV and the steady-state current at the end of the step to +40 mV.
Data acquisition and analyses were performed using the IonWorks Quattro™ system operation software (version 2.0.2; Molecular Devices Corporation, Union City, Calif.). Data were corrected for leak current.
The hERG block was calculated as: % Block=(1−ITA/IControl)×100%, where IControl and ITA were the currents elicited by the test pulse in control and in the presence of a test compound, respectively.
(In general: The hERG channel carries a current that helps repolarise heart muscle cells.)

The target of data set [4] is T2, 5-HT2A (h), human recombinant (HEK-293 cells) (Homo sapiens, UniProt P28223).
T2 construct: expressed in transfected cells; host or cells: HEK-293 cells
T2 sequence (P28223 whole entry): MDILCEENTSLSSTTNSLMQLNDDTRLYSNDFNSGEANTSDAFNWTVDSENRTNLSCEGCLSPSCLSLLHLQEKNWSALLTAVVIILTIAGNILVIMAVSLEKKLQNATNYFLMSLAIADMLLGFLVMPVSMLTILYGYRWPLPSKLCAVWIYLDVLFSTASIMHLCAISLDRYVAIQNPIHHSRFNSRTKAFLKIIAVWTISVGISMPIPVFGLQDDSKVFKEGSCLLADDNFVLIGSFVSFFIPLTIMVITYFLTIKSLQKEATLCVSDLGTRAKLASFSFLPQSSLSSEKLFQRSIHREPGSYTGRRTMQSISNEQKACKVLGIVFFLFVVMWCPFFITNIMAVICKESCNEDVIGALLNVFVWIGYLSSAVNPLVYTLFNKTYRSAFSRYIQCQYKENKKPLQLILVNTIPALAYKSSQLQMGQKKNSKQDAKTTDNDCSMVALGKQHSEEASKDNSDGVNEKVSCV
In words: Cellular functional assay 5-HT2A (h) agonism. The data set is classed as cell-based. The settings on record: compound 1×10^−6 M; control 10 μM serotonin. As for the experimental part:
The results are expressed as a percent of control specific agonist response ((measured specific response/control specific agonist response)×100) obtained in the presence of tested compound.
The EC50 values (concentration producing a half-maximal specific response) and IC50 values (concentration causing a half-maximal inhibition of the control specific agonist response) were determined by non-linear regression analysis of the concentration-response curves generated with mean replicate values using Hill equation curve fitting (Y=D+[(A−D)/(1+(C/C50)nH)], where Y=specific response, D=minimum specific response, A=maximum specific response, C=compound concentration, and C50=EC50 or IC50, and nH=slope factor).
For the antagonists, the apparent dissociation constants (Kb) were calculated using the modified Cheng Prusoff equation (Kb=IC50/(1+(A/EC50A)), where A=concentration of reference agonist in the assay, and EC50A=EC50 value of the reference agonist).

Data set [5] deals with T3, D2 receptor, human recombinant (GeneBLAzer D2-Gqo5 CHO-K1 DA) (Homo sapiens, UniProt P14416).
T3 construct: purchased Invitrogen; host or cells: CHO-K1 (GeneBLAzer D2-Gqo5 CHO-K1 DA)
T3 sequence (P14416 whole entry): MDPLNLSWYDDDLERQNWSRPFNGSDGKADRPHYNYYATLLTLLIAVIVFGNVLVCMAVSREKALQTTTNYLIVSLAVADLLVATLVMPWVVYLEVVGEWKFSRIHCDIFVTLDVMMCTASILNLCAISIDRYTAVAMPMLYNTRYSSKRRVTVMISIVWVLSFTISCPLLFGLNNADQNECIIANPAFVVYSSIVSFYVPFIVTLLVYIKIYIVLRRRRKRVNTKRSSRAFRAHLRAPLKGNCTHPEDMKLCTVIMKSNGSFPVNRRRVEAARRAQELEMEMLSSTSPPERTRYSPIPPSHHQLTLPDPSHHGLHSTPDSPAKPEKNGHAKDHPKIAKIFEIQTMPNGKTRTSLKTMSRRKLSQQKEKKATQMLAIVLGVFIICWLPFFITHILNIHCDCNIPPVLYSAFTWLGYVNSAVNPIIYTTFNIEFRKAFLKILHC
In words: Binding assay, dopaminergic D2 receptor ([3H]methylspiperone). The settings on record: read-out: Inhibition constant Ki D2. The method, then:
as §3, §1
as §2, with “factor).” for “factor). This analysis was performed using a software developed at Cerep (Hill software) and validated by comparison with data generated by the commercial software SigmaPlot® 4.0 for Windows® (©1997 by SPSS Inc.).”

The target in data set [6] is T4, human recombinant D3 receptors (Homo sapiens, UniProt P35462).
T4 construct: purchased PerkinElmer
T4 sequence (P35462 whole entry): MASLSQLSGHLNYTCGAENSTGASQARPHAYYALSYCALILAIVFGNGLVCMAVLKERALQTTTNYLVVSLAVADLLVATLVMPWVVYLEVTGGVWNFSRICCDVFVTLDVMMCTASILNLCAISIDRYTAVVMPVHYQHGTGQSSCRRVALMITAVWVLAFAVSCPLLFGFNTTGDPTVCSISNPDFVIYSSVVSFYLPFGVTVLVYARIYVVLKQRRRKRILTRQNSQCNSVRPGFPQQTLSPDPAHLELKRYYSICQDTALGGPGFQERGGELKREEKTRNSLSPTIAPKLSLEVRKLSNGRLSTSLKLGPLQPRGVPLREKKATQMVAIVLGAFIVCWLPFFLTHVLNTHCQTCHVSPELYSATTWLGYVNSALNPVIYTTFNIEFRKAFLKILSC
In words: Binding assay, dopaminergic D3 receptor ([3H]methylspiperone). The settings on record: read-out: Inhibition constant Ki D3. The method, then: as §3, §1
as §2, with “factor).” for “factor). This analysis was performed using a software developed at Cerep (Hill software) and validated by comparison with data generated by the commercial software SigmaPlot® 4.0 for Windows® (©1997 by SPSS Inc.).”

For data set [7], the target named is T5, 5-HT1A receptor (rat hippocampus) (Rattus norvegicus, UniProt P19327).
T5 construct: hippocampus; from tissue; host or cells: rat hippocampus
T5 sequence (P19327 1-422): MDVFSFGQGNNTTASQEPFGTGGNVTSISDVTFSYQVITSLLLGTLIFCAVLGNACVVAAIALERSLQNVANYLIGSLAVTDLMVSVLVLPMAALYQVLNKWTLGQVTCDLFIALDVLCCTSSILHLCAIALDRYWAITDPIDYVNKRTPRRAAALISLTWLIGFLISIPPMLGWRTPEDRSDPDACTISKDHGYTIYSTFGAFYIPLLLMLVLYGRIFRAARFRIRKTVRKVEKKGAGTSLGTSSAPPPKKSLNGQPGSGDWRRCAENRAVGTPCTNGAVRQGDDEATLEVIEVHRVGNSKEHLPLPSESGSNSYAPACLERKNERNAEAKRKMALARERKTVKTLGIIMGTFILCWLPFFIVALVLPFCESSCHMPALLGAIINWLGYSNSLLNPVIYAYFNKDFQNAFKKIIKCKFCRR
In words: Binding assay, 5-HT1A receptor ([3H]8-OH-DPAT). The settings on record: read-out: Inhibition constant Ki 5-HT1A. As for the experimental part: as §3, §1
as §2, with “factor).” for “factor). This analysis was performed using a software developed at Cerep (Hill software) and validated by comparison with data generated by the commercial software SigmaPlot® 4.0 for Windows® (©1997 by SPSS Inc.).”

Data set [8] concerns the target T6, 5-HT6 receptor, human recombinant (Homo sapiens, UniProt P50406).
T6 construct: purchased PerkinElmer
In words: Binding assay, 5-HT6 receptor ([3H]LSD). The following applies: read-out: Inhibition constant Ki 5-HT6. The method, then: as §3, §1
as §2, with “factor).” for “factor). This analysis was performed using a software developed at Cerep (Hill software) and validated by comparison with data generated by the commercial software SigmaPlot® 4.0 for Windows® (©1997 by SPSS Inc.).”

Data set [9] has as its target T7, M3 muscarinic receptors, human recombinant (CHO cells) (Homo sapiens, UniProt P20309).
T7 construct: expressed in transfected cells; host or cells: CHO cells
In words: Binding assay, M3 muscarinic receptor ([3H]4-DAMP). The following applies: compound 1×10^−6 M. The method, then:
as §3, §1, §2
Experimental conditions for tests are given in Table 10, and results of tests for representative compounds are given in Table 11.

The target of data set [10] is 5-HT2A receptor, human recombinant (Homo sapiens, UniProt P28223). In words: Binding assay, 5-HT2A receptor ([3H]ketanserin). On the set-up: purchased PerkinElmer. The following applies: read-out: Inhibition constant Ki 5-HT2A. As for the experimental part: as §3, §1
Chain of 5-HT2A receptor, human recombinant (P28223 whole entry): as the sequence (P28223 whole entry) above
as §2, with “factor).” for “factor). This analysis was performed using a software developed at Cerep (Hill software) and validated by comparison with data generated by the commercial software SigmaPlot® 4.0 for Windows® (©1997 by SPSS Inc.).”

SMILES strings stand for the structures.

T6 sequence (P50406 whole entry): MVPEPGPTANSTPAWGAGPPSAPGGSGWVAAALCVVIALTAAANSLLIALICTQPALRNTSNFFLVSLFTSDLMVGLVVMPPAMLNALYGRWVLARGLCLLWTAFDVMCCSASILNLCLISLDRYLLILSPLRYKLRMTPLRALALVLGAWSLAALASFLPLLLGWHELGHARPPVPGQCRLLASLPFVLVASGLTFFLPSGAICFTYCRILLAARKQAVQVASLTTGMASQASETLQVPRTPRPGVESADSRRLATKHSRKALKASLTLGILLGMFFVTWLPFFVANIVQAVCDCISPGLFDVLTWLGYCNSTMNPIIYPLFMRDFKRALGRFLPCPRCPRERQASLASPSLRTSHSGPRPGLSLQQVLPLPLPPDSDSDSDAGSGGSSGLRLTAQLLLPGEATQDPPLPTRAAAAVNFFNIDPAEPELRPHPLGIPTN
T7 sequence (P20309 whole entry): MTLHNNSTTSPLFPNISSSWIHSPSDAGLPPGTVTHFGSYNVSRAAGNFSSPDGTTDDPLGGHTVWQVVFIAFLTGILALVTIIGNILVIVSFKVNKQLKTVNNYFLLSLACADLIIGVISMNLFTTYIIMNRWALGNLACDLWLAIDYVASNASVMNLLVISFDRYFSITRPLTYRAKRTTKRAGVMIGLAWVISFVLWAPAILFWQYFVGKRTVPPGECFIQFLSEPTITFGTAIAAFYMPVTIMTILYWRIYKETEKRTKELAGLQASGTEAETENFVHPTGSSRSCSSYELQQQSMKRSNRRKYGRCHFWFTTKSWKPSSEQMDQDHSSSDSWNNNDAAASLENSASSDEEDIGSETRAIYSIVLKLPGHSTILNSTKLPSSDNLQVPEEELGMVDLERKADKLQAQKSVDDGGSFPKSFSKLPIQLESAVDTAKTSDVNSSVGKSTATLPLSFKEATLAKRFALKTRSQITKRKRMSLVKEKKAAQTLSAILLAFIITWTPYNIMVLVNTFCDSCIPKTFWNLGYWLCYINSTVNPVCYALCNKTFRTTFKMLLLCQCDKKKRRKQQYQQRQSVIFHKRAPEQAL

On to `O=C1CCc2ccc(OCCCN3CCN(c4cccc5c4ccn5Cc4ccccc4)CC3)cc2N1` [Compound 4, 7-[3-[4-(1-Benzylindol-4-yl)piperazin-1-yl]propoxy]-3,4-dihydro-1H-quinolin-2-one], for which, in data set [1], the “α1 [%] affinity test result” value was 68%. The “σ [%] affinity test result” value in data set [2] was found to be 45%. Besides, the “hERG [%] (% block of hERG current)” value in [3] is 27%. For the same molecule, the “5-HT2A-ag [%]” value in data set [4] was found to be 2%.

As for `O=C1CCc2ccc(OCCCCN3CCN(c4cccc5c4ccn5Cc4ccccc4)CC3)cc2N1` [Compound 5, 7-(4-(4-(1-Benzyl-1H-indol-4-yl)piperazin-1-yl)butoxy)-3,4-dihydroquinolin-2(1H)-one], the “α1 [%] affinity test result” value in data set [1] was 88%. For the same molecule, the “σ [%] affinity test result” value in data set [2] is 52%. Moreover, the “hERG [%] (% block of hERG current)” value in data set [3] was 30%. Further, the “5-HT2A-ag [%]” value in data set [4] is on record as 8%.

Consider `O=C1CCc2ccc(OCCCN3CCN(c4cccc5c4ccn5S(=O)(=O)c4ccccc4)CC3)cc2N1` [Compound 23, 7-[3-[4-[1-(Benzensulphonyl)indol-4-yl]piperazin-1-yl]propoxy]-3,4-dihydro-1H-quinolin-2-one], for which the Ki (usually the dissociation constant of the complex between target and ligand, obtained from inhibition or displacement) in data set [5] is 32 nM; in data set [6] it was 3.4 nM; in [7], 6.2 nM; in data set [8], 2.1 nM; in data set [1] it was 290 nM; in data set [3] it was greater than 10000 nM. For the same molecule, the inhibition constant (Ki) in data set [10] amounted to 170 nM. In addition, the “α1 [%] affinity test result” value in data set [1] amounted to 55%. The “M3 [%] affinity test result” value in data set [9] came to 16%. In addition, the “σ [%] affinity test result” value in data set [2] was determined as 13%. Besides, in data set [3], the “hERG [%] (% block of hERG current)” value was 7%.

Regarding `O=C1CCc2ccc(OCCCCN3CCN(c4cccc5c4ccn5S(=O)(=O)c4ccccc4)CC3)cc2N1` [Compound 24, 7-(4-(4-(1-(Phenylsulphonyl)-1H-indol-4-yl)piperazin-1-yl)butoxy)-3,4-dihydroquinolin-2(1H)-one], the Ki in data set [5] is 1.3 nM; in data set [6], 0.81 nM; in data set [7] it was 1.2 nM; in [8], 0.35 nM; in [1], 22 nM; in data set [3], greater than 10000 nM. The Ki in data set [10] worked out at 3.2 nM. Moreover, the “α1 [%] affinity test result” value in [1] was determined as 92%. For the same molecule, the “M3 [%] affinity test result” value in [9] is 37%. For the same molecule, the “σ [%] affinity test result” value in data set [2] was determined as 57%. Besides, in data set [3], the “hERG [%] (% block of hERG current)” value is 9%.

As to `O=C1CCc2ccc(OCCCCN3CCN(c4cccc5c4ccn5Cc4cccc(F)c4)CC3)cc2N1` [Compound 63, 7-[4-[4-[1-[(3-Fluorophenyl)methyl]indol-4-yl]piperazin-1-yl]butoxy]-3,4-dihydro-1H-quinolin-2-one], in data set [1], the “α1 [%] affinity test result” value came to 86%. Moreover, the “5-HT2A-ag [%]” value in data set [4] stood at 6%.

Consider `O=C1CCc2ccc(OCCCCN3CCN(c4cccc5c4ccn5Cc4cccc(Cl)c4)CC3)cc2N1` [Compound 67, 7-[4-[4-[1-[(3-Chlorophenyl)methyl]indol-4-yl]piperazin-1-yl]butoxy]-3,4-dihydro-1H-quinolin-2-one], for which the Ki in [7] came to 7 nM. The “5-HT2A-ag [%]” value in data set [4] is 4%.

With `NC(=O)c1ccccc1OCCCN1CCN(c2cccc3c2ccn3S(=O)(=O)c2ccccc2)CC1` [Compound 72, 2-[3-[4-[1-(Benzenesulfonyl)indol-4-yl]piperazin-1-yl]propoxy]-benzamide], the Ki stood at 3.2 nM in [5], 3.9 nM in data set [7], 0.31 nM in data set [8] and 18 nM in data set [10]. The “M3 [%] affinity test result” value in [9] turned out to be 23%. For the same molecule, the “5-HT2A-ag [%]” value in data set [4] was determined as 2%.
